Where two headings read alike, the source gives them in different places.
Legend:
[1] = test system: Crise à l'acide B - mercaptopropionique; experiment: B-mercaptopropionic acid seizure test; assay type: in vivo, souris; details: oral, 15 min before acide B-mercaptopropionique 60 mg/Kg I.P., mouse; read-out: DE 50 (the source's name)
Excerpt: (§1) L'invention a donc encore pour objet un médicament ayant en particulier des activités anticonvulsivante et antianoxique caractérisé en ce qu'il contient, à titre de principe actif un dérivé de formule I. Tous les essais Toxico-pharmacologiques ont été pratiqués sur des souris mâles de souche CHARLES RIVER (CD1).
L'acide B-mercaptopropionique est un inhibiteur de la glutamate-décarboxylase (GAD), enzyme qui catalyse la transformation du glutamate en acide Y-aminobutyrique (GABA). Son action se traduit donc par un abaissemement du taux de ŒBA et la survenue de crises généralisées tonico-cloniques 3 à 4 minutes après son administration. L'acide B-mercaptopropionique a été administré aux souris par voie I.P. à la dose de 60 mg/Kg. Le traitement pour les composés à tester est administré par la voie orale 15 minutes avant l'injection d'acide B-mercaptopionique. Les DE 50 exprimées en mg/Kg, ainsi déterminées sont : • Composé N° 2 = 90 • 5 = 30 • 6 = 60 • 7 = 120 • 8 = 70

[2] = test system: Crise électrique supramaximale; experiment: Supramaximal electroshock seizure test; assay type: in vivo, souris; details: po, 0.5 h; per os, 30 min before supramaximal electroshock (50 HZ, 60 volts, 0,4 sec.), mouse; read-out: DE 50 (hyperextension tonique)
Excerpt: as §1
Cette expérimentation a été effectuée selon le test de Swinyard et al., (Am.J.Pharmacol, Ther., 1952,168-175). Les traitements ont été administrés per os à des lots de 10 souris 30 mn, avant l'électrochoc supramaximal (courant alternatif de 50 HZ, 60 volts pendant 0,4 sec.) délivré par l'intermédiaire d'électrodes intra-auriculaires. On note le nombre d'animaux dans chaque lot qui ne présentent pas d'hy- perextension tonique lors de la stimulation électrique trans- cranienne, et on détermine la DE 50 exprimée en mg/Kg.

in vivo = experiment: in vivo; design: species or system souris; details: mouse, po
Excerpt: as §1
Dans le cadre de cette étude, on a déterminé l'activité sédative des composés de l'invention; on a utilisé dans ce but, le test du cylindre tournant (Boissier, J.R., Therapie 1958, 13,1074).
Ce test est destiné à apprécier l'aptitude des animaux à coordonner leurs mouvements. Il met en oeuvre un cylindre de bois, d'un diamètre de 4,8 cm, qui-tourne à la vitesse de 4 tours/mn. Le test est pratiqué sur des souris d'un poids 22 g environ. Les produits sont administrés par voie orale à différents lots de 10 animaux. Ces derniers sont placés sur l'appareil 15 minutes après l'administration du produit. On note le pourcentage de souris qui perdent le réflexe d'équilibration, c'est-à-dire qui deviennent incapables de se maintenir sur le cycindre pendant une durée de 2 minutes.
Par la méthode de Finney, on calcule une dose neuroto- xique 50 (DNT 50) qui exprime donc le niveau moyen -des premières atteintes neuromusculaires sous l'influence d'un produit étudié.

anoxie par confinement = experiment: Anoxia by confinement (antianoxic activity, survival time); assay type: in vivo, souris; details: I.P. immediately before placing in closed 200 ml vessel, mouse; dose not given
Excerpt: as §1
Cette activité a été étudiée par la méthode de l'anoxie par confinement.
Des souris (20 par lot) sont placées dans une enceinte (bocal en verre) normobare, normoxique, hermétiquement close de 200 ml. Tous les traitements sont administrés par voie I.P. immédiatement avant l'introduction dans l'enceinte. L'animal est considéré comme mort au moment de l'arrêt respiratoire.
Les bocaux choisis étant très petits, l'activité motrice des animaux est extrêmement faible, ce qui élimine en principe la possibilité d'un résultat positif par effet sédatif. On note dans chaque lot le temps de survie des animaux.

Crise pentétrazolique = experiment: Pentetrazole seizure test (protection against tonic seizures); assay type: in vivo, souris; details: read-out: DE 50 (protection contre les crises toniques)
Excerpt: On note dans chaque lot le pourcentage de protection contre les crises toniques.

[3] = Acute oral toxicity (DL 50, Finney method); design: species or system souris; details: in vivo, mouse
Procedure: as §1
Ainsi, la DL 50 déterminée par voie orale chez la souris par la méthode Finney(Probit analysis, University Press Cambridge.,. 1971) est de 3000 mg/Kg pour le dérivé N° 5'et supérieure à 1000 mg/Kg pour tous les composés de l'invention.

Crise à la bicuculline = experiment: Bicuculline seizure test; assay type: in vivo, souris; details: oral, 30 min before bicuculline 0.65 mg/Kg i.v., observed for 30 min, mouse; read-out: DE 50 (convulsions toniques)
Excerpt: as §1
Ce test a été effectué selon la méthode de Pérez de la Mora et Tapia (Biochem. Pharmacol., 1973,19,303-310). Les traitements ont été administrés par voie orale à des lots de 10 souris, 30 minutes avant l'injection de bicuculline (0.65 mg/Kg) par la voie intraveineuse. L'apparition des convulsions toniques a été notée pendant les 30 mn qui ont suivi l'injection de bicuculline. Les DE 50 en mg/Kg ainsi déterminées sont : • Composé N° 5 = 68 • 6 = 61 • 7 = 145 • 8 = 75

[4] = oral, 15 min before pentétrazole 125 mg/Kg i.p., mouse

Row | Structure (SMILES) | ED50 [1] [mg/kg] | ED50 [2] [mg/kg] | TD50 at 0.25 h (in vivo) [mg/kg] | temps de survie augmenté (anoxie par confinement) [p 100] | ED50 (Crise pentétrazolique; [4]) [mg/kg] | LD50 [3] [mg/kg] | ED50 (Crise à la bicuculline) [mg/kg] | ED50 (Crise pentétrazolique; Mus musculus, po) [mg/kg]
1 | CC1(C(=O)O)CC2CCC(C2)C1 (stereo not shown) [dérivé N° 2, Méthyl-3 bicyclo (3.2.1.) octane carboxylate -3 de sodium] | 90 | 400 | 600 | 15 | 90 |  |  | 
2 | CC1(C(N)=O)CC2CCC(C2)C1 (stereo not shown) [dérivé N° 5, Méthyl-3 bicyclo (3.2.1.) octane carboxamide-3] | 30 | 210 | 365 | 25 | 53 | 3000 | 68 | 
3 | CCC1(C(N)=O)CC2CCC(C2)C1 (stereo not shown) [dérivé N° 6, Ethyl-3 bicyclo (3.2.1.) octane carboxamide-3] | 60 | 210 | 400 |  | 75 |  | 61 | 
4 | CC(C)C1(C(N)=O)CC2CCC(C2)C1 (stereo not shown) [dérivé N° 7, Isopropyl-3 bicyclo (3.2.1.) octane carboxamide -3] | 120 | 260 | 230 |  | 120 |  | 145 | 
5 | CNC(=O)C1(C)CC2CCC(C2)C1 (stereo not shown) [dérivé N° 8, N-Méthyl mêthyl-3 bicyclo (3.2.1.) octane carboxamide-3] | 70 | 310 | 500 |  | 115 |  | 75 | 
6 | CCCC(CCC)C(=O)O [valproate de sodium, reference compound] |  |  |  |  |  |  |  | 200

Source: patent publication EP0130882A2, “Bicyclo(3.2.1)octane carboxylic-acid derivatives, processes for their preparation and their therapeutical use” (SANOFI, priority 1983, dated 1985)
